Results reported in publication PMC8997399, “High-Throughput Screening to Identify Inhibitors of Plasmodium falciparum Importin α” (Cells, 2022).
Like-named read-outs stand apart in the source and are kept apart here. Each block holds one compound with its values, some of them ahead of it.

Columns and labels:
[1] = target: T1, MmΔIBBIMPα (Mus musculus, UniProt P52293); experiment: AlphaScreen binding assay, MmΔIBBIMPα:T-ag-NLS-GFP interaction; conditions: for inhibition at 10 µM: read-out: % Inhibition of IMPα-NLS Interaction MmΔIBBIMPα
T1 construct: made in house
Procedure: (§1) PfIMPα, TgIMPα, Mus musculus IMPα (MmIMPα), ΔIBBMmIMPα, and β1 (MmIMPβ) GST fusion proteins were expressed and purified essentially as previously. His-tagged TGS1-NLS-GFP, PfIMPα and TgIMPα proteins were purified using Ni^2+-affinity chromatography as described. His-tagged SV40 T-ag-NLS-GFP was purified as previously. Biotinylation of GST-tagged proteins was carried out using the Sulfo-NHS-Biotin reagent (Pierce, Rockford, IL, USA) as described previously. AlphaScreen binding assay was performed as described previously.
(§2) Plates were read for an Alphascreen signal on an Envision plate reader (PerkinElmer, Waltham, MA, USA), with signals from the negative control wells (no bait control) on each plate subtracted.

[2] = target: T2, MmIMPα/β heterodimer (Mus musculus, UniProt P52293); experiment: AlphaScreen binding assay, MmIMPα/β:T-ag-NLS-GFP interaction; conditions: for inhibition at 10 µM: read-out: % Inhibition of IMPα-NLS Interaction MmIMPα/β
T2 construct: GST; made in house
Procedure: as §1, §2

[3] = target: PfIMPα (Plasmodium falciparum, UniProt Q8IAW0); experiment: biochemical; format: binding; conditions: for inhibition at 10 µM: read-out: % Inhibition of IMPα-NLS Interaction PfIMPα
Procedure: as §1
Then, 10 nM biotinylated PfIMPα and 60 nM TGS1-NLS-GFP were used with library compounds, screened at 10 µM final concentration.
Briefly, 5 μL of each compound in DMSO was added to quadruplicate wells of a 384-well plate along with appropriate controls including DMSO alone and ivermectin, as previously, using a JANUS Modular Dispense Technology (MDT) robotic system (PerkinElmer, Waltham, MA, USA). This was followed by successive 7 and 5 μL additions, respectively, of PfIMPα (10 nM) and TGS1-NLS-GFP (60 nM) or PBS (“no bait” control), respectively, and 30 min incubation at room temperature. […] Then, 4 µL of the AlphaScreen donor beads (1/40 dilution of GSH. acceptor beads in PBS) was finally added to each well using a Multidrop, followed by a further incubation of 2 h at room temperature in the dark.
as §2

[4] = target: TgIMPα (Toxoplasma gondii, UniProt A0A125YID0); experiment: biochemical; format: binding; conditions: for inhibition at 10 µM: read-out: % Inhibition of IMPα-NLS Interaction TgIMPα
Procedure: as §1, §2

[5] = test system: T. gondii tachyzoites; conditions: cited from earlier work
[6] = test system: P. falciparum 3D7 strain; experiment: P. falciparum growth inhibition assay (HRP2 sandwich ELISA); format: cell-based, Plasmodium falciparum; conditions: Plasmodium falciparum, 3D7, 72 h
Procedure: Red blood cells (RBCs) were derived from blood from volunteers (approval from the Institute Ethics Committee, IIT Bombay, Mumbai, India) by density gradient centrifugation. Aliquots of cryopreserved P. falciparum 3D7 strain in human red blood cells (RBCs—3% hematocrit, <5% parasitemia) were thawed and cultured using RPMI (Roswell Park Memorial Institute) 1640 medium supplemented with 0.5% Albumax (Gibco^TM, Waltham, MA, USA), 50 mg/L hypoxanthine (Sigma-Aldrich, St Louis, MO, USA), 2 g/L D-glucose (Sigma-Aldrich, St Louis, MO, USA), 2 g/L sodium bicarbonate (Sigma-Aldrich, St Louis, MO, USA), and 56 mg/L of gentamicin (Abbott, Chicago, IL, USA) at 37 °C in 5% CO2 in a humidified incubator according to the standard procedures; suspension cultures were maintained at 3% hematocrit and <5% parasitemia, by adding a fresh medium daily and a regular addition of fresh human RBCs.
Before growth inhibition assays, cultures were synchronized using 5% D-sorbitol (Sigma-Aldrich, St Louis, MO, USA) predominantly to obtain the ring stage of the P. falciparum life cycle.
Growth assays in the absence and presence of inhibitors were performed using the Histidine–Rich Protein 2 (HRP2) sandwich horseradish peroxidase-linked immunosorbent assay to measure HRP2 protein levels as an indicator of growth. Briefly, 25 µL of compound was added to 96-well microculture plates (Eppendorf, Hamburg, Germany) of 0.25% (with fresh RBCs), and added at a hematocrit of 3%. The plates were then incubated for 72 h at 37 °C in a humidified incubator, sparged with 5% CO2. 72 h later, the plates were subjected to freeze–thaw to achieve hemolysis, and samples diluted 200-fold in H2O in transferring to another plate. A day prior to analysis, 96-well ELISA plates (Sigma-Aldrich, St Louis, MO, USA) were coated overnight at 4 °C with 100 µL of 1 μg/mL IgM capture antibody MPFM-55A (Immunology Consultants Laboratory, Portland, OR, USA) specific for P. falciparum HRP2. After blocking for 2 h at room temperature with 2% BSA in PBS, diluted samples were added to the wells, followed by incubation for 2 h, then the plates were washed three times with 0.05% Tween 20 in PBS. Next, 100 µL of the secondary antibody MPFG-55P (Immunology Consultants Laboratory, Portland, OR, USA) conjugated with horseradish peroxidase (0.25 μg/mL in PBS with 2% BSA) was then added to each well, and the plates incubated for 1 h at room temperature, prior to being washed three times, and 100 µL 3,3′, 5,5′ tetramethylbenzidine substrate (BD Biosciences, San Jose, CA, USA) being added. After 10 min incubation in the dark, 50 µL of 1 M H2SO4 was added and the absorbance was read at 450 nm on a Multiscan™ FC Microplate Spectrophotometer (Thermo Fisher Scientific, Waltham, MA, USA).

[7] = test system: T. gondii RH strain expressing the luciferase reporter (RH-Fluc); experiment: T. gondii tachyzoite growth inhibition assay (RH-Fluc luciferase); format: cell-based, Toxoplasma gondii; conditions: Toxoplasma gondii
Source text: T. gondii RH strain expressing the luciferase reporter (RH-Fluc) was derived to assess the effect of the inhibitors on growth. Briefly, plasmid pCTG-EGFP [42] was modified by replacing the coding sequence of EGFP with that of the firefly luciferase reporter, using restriction enzymes BglII and PstI (Thermo Fisher Scientific, Waltham, MA, USA). The resultant plasmid, pCTG-Fluc, expressing firefly luciferase constitutively under the control of the T. gondii TubulinA promoter, was electroporated into the T. gondii RH strain [43, 44] using a Bio-Rad GenePulser Xcell system (1500 V, 50 Ω and 25 µF) along with restriction enzyme NotI to initiate RE-Mediated Integration (REMI) of the linearized plasmid into the genome. The resultant stable T. gondii line expressing the luciferase reporter was selected for resistance to 20 µM chloramphenicol (encoded by the plasmid pCTG), and dilution cloning was performed to ultimately identify the clone (RH-Fluc) with the highest luciferase activity (c. 4 × 10^7 RLU from 10^7 parasites) used for growth assays. T. gondii tachyzoites were maintained and cultured at 37 °C in 5% CO2 in a humidified incubator in primary human foreskin fibroblasts (HFF, ATCC); HFF cells were maintained in Dulbecco’s modified Eagle medium (DMEM) (Gibco^TM, Waltham, MA, USA) supplemented with 3.7 g/L sodium bicarbonate and 2.38 g/L HEPES, 10% Cosmic Calf serum (Hyclone^TM, Logan, UT, USA) and 20 mg/L gentamicin [47, 48].
Growth inhibition was assessed by luminescence measurements as described. Briefly, 100 μL of culture medium with or without inhibitors was added to confluent monolayers of HFF cells grown in 96-well treated culture plates (Eppendorf, Hamburg, Germany), followed by 100 µL of DMEM containing 5000 parasites. After 48 h, 150 µL of the culture media was discarded from each well without aspirating any parasites, and 10 µL lysis buffer was added to lyse the parasites, followed by 50 μL of 2× luciferase assay reagent (Promega, Madison, WI, USA). Luminescence was measured directly for 10 s using a Varioskan™ LUX multimode microplate reader (Thermo Fisher Scientific, Waltham, MA, USA).

[8] = MTT assay for host cell cytotoxicity; format: cell-based, human; conditions: human, HFF cells; MTT assay, 48 h; mean ± SD (n = 2)
Procedure: The MTT assay was used to measure the cytotoxicity of the small molecules against the HFF cells as described. Briefly, freshly confluent HFF cells in a 96-well culture plate were treated with increasing concentrations of compounds for 48 h, prior to the MTT assay.

[9] = target: His-tagged SV40 T-ag-NLS-GFP (NLS of simian virus SV40 large tumor antigen fused to GFP) (Simian Virus 40); experiment: AlphaScreen or HTRF
[10] = target: His-tagged TGS1-NLS-GFP (NLS of P. falciparum trimethyl guanosine synthase 1 fused to GFP) (Plasmodium falciparum); experiment: AlphaScreen or HTRF; Kd determination without inhibitors; His-tagged NLS-GFP (30 nM) and biotinylated-GST-IMPα (5 nM) as printed; pooled from three independent experiments
[11] = compounds at 10 μM, PfIMPα (10 nM):TGS1-NLS-GFP (60 nM), relative to 1% DMSO control, quadruplicate
[12] = compounds at 10 μM, TgIMPα (5 nM):T-ag-NLS-GFP (30 nM), relative to 1% DMSO control
[13] = compounds at 10 μM, ΔIBBMmIMPα (5 nM):T-ag-NLS-GFP (30 nM), relative to 1% DMSO control
[14] = compounds at 10 μM, MmIMPα/β (5 nM):T-ag-NLS-GFP (30 nM), relative to 1% DMSO control

Compound: CNC[C@H](O)c1ccc(O)c(O)c1.Cl (racemic) [(±)-Epinephrine HCl]
% Inhibition of IMPα-NLS Interaction MmΔIBBIMPα [1]: 35%
% Inhibition of IMPα-NLS Interaction MmΔIBBIMPα ([1]; listed as (±)-epinephrine HCl): < 55%
% Inhibition of IMPα-NLS Interaction MmIMPα/β [2]: 95%
% Inhibition of IMPα-NLS Interaction MmIMPα/β ([2]; listed as (±)-epinephrine HCl): ≥ 95%

Compound: Cl.NCC(O)c1cc(O)c(O)cc1F (stereo not drawn) [6-Fluoronorepinephrine HCl]
% Inhibition of IMPα-NLS Interaction PfIMPα [3, 11]: 77%
% Inhibition of IMPα-NLS Interaction TgIMPα [4, 12]: 67%
% Inhibition of IMPα-NLS Interaction MmΔIBBIMPα [1, 13]: 60%
% Inhibition of IMPα-NLS Interaction MmIMPα/β [2, 14]: 51%

Compound: CNC[C@H](O)c1ccc(O)c(O)c1 [(−)-Epinephrine bitartrate]
inhibition at 10 µM [3]: 85%
inhibition at 10 µM [4]: 23%
inhibition at 10 µM [1, 13]: 34%
inhibition at 10 µM [2, 14]: 94%

Compound: CC[n+]1c(/C=C/C=C2/N(C)c3ccccc3C2(C)C)sc2ccccc21.[I-] [AC-93253 iodide]
% Inhibition of IMPα-NLS Interaction PfIMPα [3, 11]: 82%
% Inhibition of IMPα-NLS Interaction TgIMPα [4, 12]: 72%
% Inhibition of IMPα-NLS Interaction MmΔIBBIMPα [1, 13]: 67%
% Inhibition of IMPα-NLS Interaction MmIMPα/β [2, 14]: 62%

Compound: Cc1ccc(S(=O)(=O)/C=C/C#N)cc1 [Bay 11-7082]
inhibition of growth of T. gondii tachyzoites [5]: inhibit the growth

Compound: COc1ccc2c(c[n+](C)c3c4cc5c(cc4ccc23)OCO5)c1OC.[Cl-] [Chelerythrine Cl]
% Inhibition of IMPα-NLS Interaction PfIMPα [3, 11]: 81%
% Inhibition of IMPα-NLS Interaction TgIMPα [4, 12]: 67%
% Inhibition of IMPα-NLS Interaction MmΔIBBIMPα [1, 13]: 88%
% Inhibition of IMPα-NLS Interaction MmIMPα/β [2, 14]: 94%

IC50 ([6]; parasites in culture, pooled, mean ± SD (n = 3)): 1 nM
IC50 ([6]; single typical experiment (Figure 6)): 0.7 nM
Compound: C[C@H]1[C@@H](O)O[C@@H]2O[C@@]3(C)CC[C@H]4[C@H](C)CC[C@@H]1[C@@]24OO3 [DHA, dihydroartemisinin]

Compound: O=c1ccc2ccc(O)c(O)c2o1 [Daphnetin]
inhibition at 10 µM [3, 11]: 81%
inhibition at 10 µM [4, 12]: 70%
inhibition at 10 µM [1, 13]: 81%
inhibition at 10 µM [2, 14]: 83%

Compound: O=C(Nc1ccc(N2CCNCC2)nc1)c1oc(-c2ccccc2)nc1C(F)(F)F [MMV024937]
% Inhibition of IMPα-NLS Interaction PfIMPα [3, 11]: 73%
% Inhibition of IMPα-NLS Interaction TgIMPα [4, 12]: 26%
% Inhibition of IMPα-NLS Interaction MmΔIBBIMPα [1, 13]: 70%
% Inhibition of IMPα-NLS Interaction MmIMPα/β [2, 14]: 24%

Compound: CC(C)(CN)c1nc(-c2ccc(Cl)c(O)c2)c(-c2ccnc(N)n2)[nH]1 [MMV030734]
% Inhibition of IMPα-NLS Interaction TgIMPα [4, 12]: 44%
% Inhibition of IMPα-NLS Interaction MmΔIBBIMPα [1, 13]: 43%
% Inhibition of IMPα-NLS Interaction MmIMPα/β [2, 14]: 68%

Compound: O=C(Nc1nc(-c2ccccn2)cs1)c1cncn1-c1ccccc1 [MMV676512]
% Inhibition of IMPα-NLS Interaction TgIMPα [4, 12]: 48%
% Inhibition of IMPα-NLS Interaction MmΔIBBIMPα [1, 13]: 54%

Compound: CCc1nc(N)nc(N)c1-c1ccc(Cl)cc1 [pyrimethamine]
IC50 ([7]; Table S1, mean ± SEM (n = 3), read-out: IC50 T. gondii tachyzoites): 500 ± 100 nM
IC50 ([7]; parasites in culture, 48 h, pooled, mean ± SD (n = 3) (Table 3), read-out: IC50 T. gondii): 460 ± 140 nM
CC50 at 48 h [8]: > 10000 nM

Compound: Mus musculus importin α deleted for the autoinhibitory IBB domain (MmΔIBBIMPα), biotinylated GST fusion protein (domain or fragment)
Kd [9]: 2.6 nM

Compound: Plasmodium falciparum importin α (PfIMPα), biotinylated GST fusion protein (natural protein)
Kd [10]: 6.5 nM

Compound: Toxoplasma gondii importin α (TgIMPα), biotinylated GST fusion protein (natural protein)
Kd [9]: 3.5 nM
